According to PubChem BioAssay (NCI):
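Compound exposure: 48 hours, 5 concentrations, 96-well plates. Here, GI50 denotes the concentration required for 50% inhibition of growth. TGI: concentration producing complete growth inhibition.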

Key:
Assay in all cases: DTP human tumour cell line panel, 48 h
SK-OV-3 ovarian = system: SK-OV-3 ovarian
SF-295 CNS = system: SF-295 CNS
M14 melanoma = system: M14 melanoma
RPMI-8226 leukemia = system: RPMI-8226 leukemia
COLO 205 colon = system: COLO 205 colon
UACC-62 melanoma = system: UACC-62 melanoma
A549 NSCLC = system: A549 NSCLC
KM12 colon = system: KM12 colon
SNB-75 CNS = system: SNB-75 CNS
HCC-2998 colon = system: HCC-2998 colon

Compound | TGI (SK-OV-3 ovarian) [µM] | TGI (SF-295 CNS) [µM] | TGI (M14 melanoma) [µM] | TGI (RPMI-8226 leukemia) [µM] | TGI (COLO 205 colon) [µM] | TGI (UACC-62 melanoma) [µM] | TGI (A549 NSCLC) [µM] | TGI (KM12 colon) [µM] | TGI (SNB-75 CNS) [µM] | TGI (HCC-2998 colon) [µM] | GI50 (SK-OV-3 ovarian) [µM] | GI50 (SF-295 CNS) [nM] | GI50 (M14 melanoma) [nM] | GI50 (RPMI-8226 leukemia) [µM] | GI50 (COLO 205 colon) [µM] | GI50 (UACC-62 melanoma) [µM] | GI50 (A549 NSCLC) [µM] | GI50 (KM12 colon) [µM] | GI50 (SNB-75 CNS) [µM] | GI50 (HCC-2998 colon) [nM]
CCn1cc(C(c2ccc(Cl)cc2)n2ccnc2)c2cc(Br)ccc21 (configuration not stated) | 33.3 | 23.8 | 26.7 | 75 | 35.1 | 25.2 | 24 | 24.3 | 28.5 | 29 | – | – | – | – | – | – | – | – | – | –
COC1OC(=O)[C@H]2O[N+]([O-])=C(C)[C@@H]12 (some centres not stated) | > 100 | > 100 | – | > 100 | > 100 | > 100 | > 100 | > 100 | > 100 | > 100 | – | – | – | – | – | – | – | – | – | –
C/C(=N\NC(=S)NC(C)C)c1nc2ncccc2[nH]1 | 33.4 | 35.6 | > 100 | > 100 | > 100 | 98.7 | > 100 | > 100 | > 66.7 | > 100 | – | – | – | – | – | – | – | – | – | –
O=C1CC(=O)N(c2ccccc2)N1/C(=C/c1ccccc1)c1ccccc1 | 76.5 | 35.6 | 46.6 | 34.5 | 36.6 | 37.3 | > 100 | 66.5 | 83.2 | 37.3 | – | – | – | – | – | – | – | – | – | –
C=CC(=O)Nc1cccc(-c2nc(SC)nc(Nc3ccccc3OC)c2C#N)c1 | 26.9 | 4.46 | 5.64 | > 100 | 5.33 | 14.6 | 5.24 | 12 | 4.35 | 8.66 | 6.09 | 1950 | 2220 | 3.11 | 1.95 | 2.81 | 2.08 | 3.02 | 1.5 | 2580
Nc1ccccc1Nc1ccccc1C(=O)[O-].Nc1ccccc1Nc1ccccc1C(=O)[O-].[Cu+2] | > 100 | > 100 | > 100 | > 100 | > 100 | 44.3 | > 100 | > 100 | > 100 | > 100 | – | – | – | – | – | – | – | – | – | –
O=C(NS(=O)(=O)Nc1ccc(Cl)cc1)OCc1ccc(Cl)cc1Cl | 48.2 | 42.7 | > 100 | > 100 | 32.3 | 32.3 | 52.6 | 57.2 | > 100 | 30.9 | – | – | – | – | – | – | – | – | – | –
CSC1=Nc2ccccc2N(C)c2c1c(-c1ccccc1)nn2C | > 100 | 33.6 | > 100 | 37.1 | > 100 | > 100 | > 100 | > 100 | > 100 | 56 | – | – | – | – | – | – | – | – | – | –
O=[Se]([O-])c1ccccc1.O=[Se]([O-])c1ccccc1.[OH3+].[OH3+].[Pt+2] | > 100 | 16.9 | – | 39.7 | 18.4 | 55.6 | 58.8 | 25 | 33.8 | 55.9 | 56.6 | 3420 | – | 5.41 | 6.78 | 13.1 | 12.2 | 3.41 | 6.17 | 16600
CCC(=O)C(c1ccccc1)c1ccccn1 (configuration not stated) | > 100 | > 100 | > 100 | > 100 | > 100 | > 100 | > 100 | > 100 | > 100 | > 100 | – | – | – | – | – | – | – | – | – | –
O=C(Nc1ccc(I)cc1C(=O)NCCO)c1cccs1 | > 100 | > 100 | > 100 | > 100 | > 100 | > 100 | > 100 | > 100 | – | > 100 | – | – | – | – | – | – | – | – | – | –
N#Cc1c(NC(=S)NC(=O)c2ccccc2)nc2c(c1-c1ccccc1)CCC2 | > 100 | > 100 | > 100 | > 100 | > 100 | > 100 | > 100 | > 100 | > 100 | – | – | – | – | – | – | – | – | – | – | –
CC(C)CC(N)C(=O)OCN1C(=O)C2C3C=CC(C2C1=O)C1C2C(=O)N(COC(=O)C(N)CC(C)C)C(=O)C2C31 (configuration not stated) | > 100 | > 100 | > 100 | > 78.6 | > 100 | > 100 | > 100 | > 100 | > 100 | > 100 | – | – | – | – | – | – | – | – | – | –
Cc1[nH]c(/C=C2\C(=O)Nc3ccc(S(=O)(=O)Cc4c(Cl)cccc4Cl)cc32)c(C)c1C(=O)N1CCC[C@@H]1CN1CCCC1 | 59.1 | 2.57 | 2.92 | – | 22.6 | – | – | 4.77 | – | 3.6 | 22.4 | 1190 | 1500 | – | 9.15 | – | – | 0.138 | – | 1950
